Several values for one entry are separate records, joined by “and”; a condition that tells them apart may be missing. Equal values may be shown once.
Experiments:
[1] = target: GRPR (Homo sapiens, UniProt P30550); test: Fluorometric calcium release assay; format: cell-based; conditions: PC-3 cells, 50 nM
[2] = target: GRPR; conditions: read-out: Ki (reported value); murine Swiss 3T3 cells; cited from earlier work

Chain of GRPR (Homo sapiens, UniProt P30550) (P30550 whole entry): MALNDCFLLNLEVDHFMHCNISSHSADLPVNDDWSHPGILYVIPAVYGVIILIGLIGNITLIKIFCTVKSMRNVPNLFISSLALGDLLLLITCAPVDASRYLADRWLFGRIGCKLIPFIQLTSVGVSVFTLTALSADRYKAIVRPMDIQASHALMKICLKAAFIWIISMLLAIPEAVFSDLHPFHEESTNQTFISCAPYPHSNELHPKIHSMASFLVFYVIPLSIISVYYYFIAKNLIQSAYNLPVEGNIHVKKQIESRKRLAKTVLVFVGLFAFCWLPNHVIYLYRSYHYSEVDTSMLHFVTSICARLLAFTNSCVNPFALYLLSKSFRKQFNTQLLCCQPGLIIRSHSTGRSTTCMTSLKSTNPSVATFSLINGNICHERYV

Intracellular calcium release [1] | Molecule | Ki [2] [nM]
511 ± 45.5 RFUs and > 500 RFUs | Nc1ncnc2c1ncn2[C@@H]1O[C@H](COP(=O)(O)OP(=O)(O)OP(=O)(O)O)[C@@H](O)[C@H]1O [ATP, adenosine triphosphate] | –
– | D-Phe-Gln-Trp-Ala-Val-Gly-His-Leu-ψ-Tac-NH2 [RC-3950-II] | 0.078
